Assay results: BindingDB's records for doi:10.1021/np2005083 (National Cancer Institute-Frederick, 2011)
pIC50: −log10 of the molar value.

Target: Transcription factor Jun (Homo sapiens, UniProt P05412)
Assay: Inhibition of AP1 expressed in HEK293T cells coexpressing beta-lactamase pre-incubated 1 hr before TPA addition measured 18 hrs post TPA challenge by fluorimetric assay

Chain of Transcription factor Jun (P05412 whole entry): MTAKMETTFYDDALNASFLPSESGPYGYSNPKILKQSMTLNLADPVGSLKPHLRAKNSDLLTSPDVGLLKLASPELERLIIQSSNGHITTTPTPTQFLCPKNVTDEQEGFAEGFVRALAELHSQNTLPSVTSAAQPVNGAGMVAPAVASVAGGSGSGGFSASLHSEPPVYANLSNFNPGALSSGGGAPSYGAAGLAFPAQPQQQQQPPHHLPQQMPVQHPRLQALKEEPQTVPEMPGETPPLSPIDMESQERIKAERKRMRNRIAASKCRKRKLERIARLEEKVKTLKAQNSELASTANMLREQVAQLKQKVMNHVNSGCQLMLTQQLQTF

| pIC50 | Structure (SMILES) |
| --- | --- |
| 5.22 | CC(C)[C@H]1C(=O)N2CCC[C@H]2C(=O)N(C)[C@H](Cc2ccccc2)C2=N[C@@H](CS2)C(=O)N[C@H](C)C2=N[C@@H](CS2)C(=O)N(C)[C@H](Cc2ccccc2)C(=O)N[C@H](C(C)C)C(=O)N[C@H](C)[C@@H](C)C(=O)O[C@@H](Cc2ccccc2)C(=O)N1C |
| 5.28 | CC[C@H]1NC(=O)[C@@H]2CSC(=N2)[C@@H](Cc2ccccc2)N(C)C(=O)[C@@H]2CCCN2C(=O)[C@H](C(C)C)N(C)C(=O)[C@H](Cc2ccccc2)OC(=O)[C@H](C)[C@@H](C)NC(=O)[C@@H](C(C)C)NC(=O)[C@@H](Cc2ccccc2)N(C)C(=O)[C@@H]2CSC1=N2 |
